Experimental data: publication PMC11822212, “High-throughput screening identifies Aurora kinase B as a critical therapeutic target for Merkel cell carcinoma” (Nature Communications, 2025)
Like-named read-outs stand apart in the source and are kept apart here.

Assays:
MKL-2 cells (VP-MCC) = assay: qHTS cell viability (CellTiter-Glo, 72 h; primary and follow-up small molecule screen); format: cell-based, human
[1] = qHTS cell viability (CellTiter-Glo, 72 h; primary screen), control cell line; format: cell-based, mouse; conditions: mouse, read-out: Percent viability
MCC13 cells (VN-MCC) = assay: qHTS cell viability (CellTiter-Glo, 72 h; primary and follow-up small molecule screen); format: cell-based, human
MKL-1 cells (VP-MCC) = assay: as above; format: cell-based, human
[2] = qHTS cell viability (CellTiter-Glo, 72 h; primary screen), control cell line; format: cell-based, human; conditions: human, HEK293T, read-out: Percent viability
[3] = as above; format: cell-based, human; conditions: human, HACAT, read-out: Percent viability
[4] = tested on: VP-MCC cell lines (WAGA, MKL-1, MKL-2); assay: qHTS cell viability, VP-MCC cell lines as a group (mean AUC, VP.MCC.avg); format: cell-based, human; conditions: small molecule screen
UISO cells (VN-MCC) = assay: qHTS cell viability (CellTiter-Glo, 72 h; primary and follow-up small molecule screen); format: cell-based, human; conditions: UISO
MCC26 cells (VN-MCC) = assay: as above; format: cell-based, human
[5] = qHTS cell viability (CellTiter-Glo, 72 h; primary screen), control cell line; format: cell-based; conditions: human, read-out: Percent viability
WAGA cells (VP-MCC) = assay: qHTS cell viability (CellTiter-Glo, 72 h; primary and follow-up small molecule screen); format: cell-based, human; conditions: WAGA

COCCn1c2c([n+](Cc3cnccn3)c1C)C(=O)c1ccccc1C2=O [sepantronium bromide, reference compound]
Percent viability (MKL-2 cells (VP-MCC); MKL2, Log (M) -4.33646): 5.0%
Percent viability (MKL-2 cells (VP-MCC); MKL2, Log (M) -4.81358): 6.0%
Percent viability (MKL-2 cells (VP-MCC); MKL2, Log (M) -5.2907): 6.6%
Percent viability (MKL-2 cells (VP-MCC); MKL2, Log (M) -5.76782): 7.9%
Percent viability (MKL-2 cells (VP-MCC); MKL2, Log (M) -6.24494): 7.7%
Percent viability (MKL-2 cells (VP-MCC); MKL2, Log (M) -6.72207): 7.4%
Percent viability (MKL-2 cells (VP-MCC); MKL2, Log (M) -7.19919): 9.2%
Percent viability (MKL-2 cells (VP-MCC); MKL2, Log (M) -7.67631): 27.9%
Percent viability (MKL-2 cells (VP-MCC); MKL2, Log (M) -8.15343): 100.0%
Percent viability (MKL-2 cells (VP-MCC); MKL2, Log (M) -8.63055): 100.0%
Percent viability (MKL-2 cells (VP-MCC); MKL2, Log (M) -9.10767): 102.5%
viability at 72 h, 15.4 µM ([1]; NIH-3T3 cells (control cell line), 3T3, Log (M) -4.81358): 62.5%
viability at 72 h, 5.12 µM ([1]; NIH-3T3 cells (control cell line), 3T3, Log (M) -5.2907): 69.8%
viability at 72 h, 1.71 µM ([1]; NIH-3T3 cells (control cell line), 3T3, Log (M) -5.76782): 96.1%
viability at 72 h, 0.569 µM ([1]; NIH-3T3 cells (control cell line), 3T3, Log (M) -6.24494): 104%
viability at 72 h, 190 nM ([1]; NIH-3T3 cells (control cell line), 3T3, Log (M) -6.72207): 100%
viability at 72 h, 63.2 nM ([1]; NIH-3T3 cells (control cell line), 3T3, Log (M) -7.19919): 100%
viability at 72 h, 21.1 nM ([1]; NIH-3T3 cells (control cell line), 3T3, Log (M) -7.67631): 104%
viability at 72 h, 46.1 µM ([1]; NIH-3T3 cells, 3T3, Log (M) -4.33646): 20.8%
viability at 72 h, 7.02 nM ([1]; NIH-3T3 cells, 3T3, Log (M) -8.15343): 103%
viability at 72 h, 2.34 nM ([1]; NIH-3T3 cells, 3T3, Log (M) -8.63055): 100%
viability at 72 h, 0.78 nM ([1]; NIH-3T3 cells, 3T3, Log (M) -9.10767): 100%
Percent viability (MCC13 cells (VN-MCC); MCC-13, Log (M) -4.33646): 8.9%
Percent viability (MCC13 cells (VN-MCC); MCC-13, Log (M) -4.81358): 6.8%
Percent viability (MCC13 cells (VN-MCC); MCC-13, Log (M) -5.2907): 19.3%
Percent viability (MCC13 cells (VN-MCC); MCC-13, Log (M) -5.76782): 19.0%
Percent viability (MCC13 cells (VN-MCC); MCC-13, Log (M) -6.24494): 57.5%
Percent viability (MCC13 cells (VN-MCC); MCC-13, Log (M) -6.72207): 89.4%
Percent viability (MCC13 cells (VN-MCC); MCC-13, Log (M) -7.19919): 92.8%
Percent viability (MCC13 cells (VN-MCC); MCC-13, Log (M) -7.67631): 105.1%
Percent viability (MCC13 cells (VN-MCC); MCC-13, Log (M) -8.15343): 92.1%
Percent viability (MCC13 cells (VN-MCC); MCC-13, Log (M) -8.63055): 110.1%
Percent viability (MCC13 cells (VN-MCC); MCC-13, Log (M) -9.10767): 104.4%
Percent viability (MKL-1 cells (VP-MCC); MKL1, Log (M) -4.33646): 4.1%
Percent viability (MKL-1 cells (VP-MCC); MKL1, Log (M) -4.81358): 5.1%
Percent viability (MKL-1 cells (VP-MCC); MKL1, Log (M) -5.2907): 6.0%
Percent viability (MKL-1 cells (VP-MCC); MKL1, Log (M) -5.76782): 6.5%
Percent viability (MKL-1 cells (VP-MCC); MKL1, Log (M) -6.24494): 8.2%
Percent viability (MKL-1 cells (VP-MCC); MKL1, Log (M) -6.72207): 7.5%
Percent viability (MKL-1 cells (VP-MCC); MKL1, Log (M) -7.19919): 7.7%
Percent viability (MKL-1 cells (VP-MCC); MKL1, Log (M) -7.67631): 8.0%
Percent viability (MKL-1 cells (VP-MCC); MKL1, Log (M) -8.15343): 17.1%
Percent viability (MKL-1 cells (VP-MCC); MKL1, Log (M) -8.63055): 55.6%
Percent viability (MKL-1 cells (VP-MCC); MKL1, Log (M) -9.10767): 97.8%
viability at 72 h, 15.4 µM ([2]; HEK293T cells (control cell line), Log (M) -4.81358): 1%
viability at 72 h, 5.12 µM ([2]; HEK293T cells (control cell line), Log (M) -5.2907): -4.1%
viability at 72 h, 1.71 µM ([2]; HEK293T cells (control cell line), Log (M) -5.76782): -3.3%
viability at 72 h, 63.2 nM ([2]; HEK293T cells (control cell line), Log (M) -7.19919): -1.7%
viability at 72 h, 46.1 µM ([2]; HEK293T cells, Log (M) -4.33646): -1.2%
viability at 72 h, 21.1 nM ([2]; HEK293T cells, Log (M) -7.67631): 23.3%
viability at 72 h, 7.02 nM ([2]; HEK293T cells, Log (M) -8.15343): 104%
viability at 72 h, 2.34 nM ([2]; HEK293T cells, Log (M) -8.63055): 100%
viability at 72 h, 0.78 nM ([2]; HEK293T cells, Log (M) -9.10767): 100%
viability at 72 h, 15.4 µM ([3]; HACAT cells (control cell line), Log (M) -4.81358): 21.2%
viability at 72 h, 5.12 µM ([3]; HACAT cells (control cell line), Log (M) -5.2907): 18.9%
viability at 72 h, 1.71 µM ([3]; HACAT cells (control cell line), Log (M) -5.76782): 48.7%
viability at 72 h, 0.569 µM ([3]; HACAT cells (control cell line), Log (M) -6.24494): 44.2%
viability at 72 h, 190 nM ([3]; HACAT cells (control cell line), Log (M) -6.72207): 35.1%
viability at 72 h, 63.2 nM ([3]; HACAT cells (control cell line), Log (M) -7.19919): 66.6%
viability at 72 h, 46.1 µM ([3]; HACAT cells, Log (M) -4.33646): 21.2%
viability at 72 h, 21.1 nM ([3]; HACAT cells, Log (M) -7.67631): 100%
viability at 72 h, 7.02 nM ([3]; HACAT cells, Log (M) -8.15343): 98.2%
viability at 72 h, 2.34 nM ([3]; HACAT cells, Log (M) -8.63055): 88.9%
viability at 72 h, 0.78 nM ([3]; HACAT cells, Log (M) -9.10767): 104%
viability of VP-MCC (in words) [4]: potent compound for inhibiting the viability of VP-MCC
Percent viability (UISO cells (VN-MCC); Log (M) -4.33646): 1.7%
Percent viability (UISO cells (VN-MCC); Log (M) -4.81358): -3.1%
Percent viability (UISO cells (VN-MCC); Log (M) -5.76782): 0.3%
Percent viability (UISO cells (VN-MCC); Log (M) -6.24494): -7.3%
Percent viability (UISO cells (VN-MCC); Log (M) -6.72207): -3.8%
Percent viability (UISO cells (VN-MCC); Log (M) -7.19919): 3.4%
Percent viability (UISO cells (VN-MCC); Log (M) -7.67631): 44.8%
Percent viability (UISO cells (VN-MCC); Log (M) -8.15343): 99.6%
Percent viability (UISO cells (VN-MCC); Log (M) -8.63055): 102.4%
Percent viability (UISO cells (VN-MCC); Log (M) -9.10767): 104.0%
Percent viability (MCC26 cells (VN-MCC); MCC-26, Log (M) -4.33646): 12.7%
Percent viability (MCC26 cells (VN-MCC); MCC-26, Log (M) -4.81358): 14.1%
Percent viability (MCC26 cells (VN-MCC); MCC-26, Log (M) -5.2907): 15.5%
Percent viability (MCC26 cells (VN-MCC); MCC-26, Log (M) -5.76782): 13.0%
Percent viability (MCC26 cells (VN-MCC); MCC-26, Log (M) -6.24494): 32.6%
Percent viability (MCC26 cells (VN-MCC); MCC-26, Log (M) -6.72207): 74.3%
Percent viability (MCC26 cells (VN-MCC); MCC-26, Log (M) -7.19919): 94.8%
Percent viability (MCC26 cells (VN-MCC); MCC-26, Log (M) -7.67631): 100.8%
Percent viability (MCC26 cells (VN-MCC); MCC-26, Log (M) -8.15343): 100.6%
Percent viability (MCC26 cells (VN-MCC); MCC-26, Log (M) -8.63055): 101.9%
Percent viability (MCC26 cells (VN-MCC); MCC-26, Log (M) -9.10767): 102.7%
viability at 72 h, 46.1 µM ([5]; CRL-7250 cells (control cell line), CRL-7250, Log (M) -4.33646): -4.6%
viability at 72 h, 15.4 µM ([5]; CRL-7250 cells (control cell line), CRL-7250, Log (M) -4.81358): 10.1%
viability at 72 h, 5.12 µM ([5]; CRL-7250 cells (control cell line), CRL-7250, Log (M) -5.2907): -5.4%
viability at 72 h, 1.71 µM ([5]; CRL-7250 cells (control cell line), CRL-7250, Log (M) -5.76782): -4.8%
viability at 72 h, 569 nM ([5]; CRL-7250 cells (control cell line), CRL-7250, Log (M) -6.24494): -8.6%
viability at 72 h, 190 nM ([5]; CRL-7250 cells (control cell line), CRL-7250, Log (M) -6.72207): 39.2%
viability at 72 h, 63.2 nM ([5]; CRL-7250 cells (control cell line), CRL-7250, Log (M) -7.19919): 65.6%
viability at 72 h, 21.1 nM ([5]; CRL-7250 cells, CRL-7250, Log (M) -7.67631): 101%
viability at 72 h, 2.34 nM ([5]; CRL-7250 cells, CRL-7250, Log (M) -8.63055): 100%
Percent viability (WAGA cells (VP-MCC); Log (M) -4.33646): 2.2%
Percent viability (WAGA cells (VP-MCC); Log (M) -4.81358): 2.7%
Percent viability (WAGA cells (VP-MCC); Log (M) -5.2907): 3.2%
Percent viability (WAGA cells (VP-MCC); Log (M) -5.76782): 3.6%
Percent viability (WAGA cells (VP-MCC); Log (M) -6.24494): 3.4%
Percent viability (WAGA cells (VP-MCC); Log (M) -6.72207): 4.1%
Percent viability (WAGA cells (VP-MCC); Log (M) -7.19919): 5.7%
Percent viability (WAGA cells (VP-MCC); Log (M) -7.67631): 15.6%
Percent viability (WAGA cells (VP-MCC); Log (M) -8.15343): 103.1%
Percent viability (WAGA cells (VP-MCC); Log (M) -8.63055): 106.2%
Percent viability (WAGA cells (VP-MCC); Log (M) -9.10767): 107.0%
